# Measurements as given in PubChem BioAssay (NCI).
# Where “and” joins values, the source holds several entries; their conditions need not be identical. Equal entries are not always repeated.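 Briefly, cells in 96-well plates were exposed to five compound concentrations for 48 h, and endpoints were estimated by linear interpolation. At the GI50, growth is halved. TGI is the concentration that stops growth completely.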
# Tests used:
# Assay in all cases: DTP human tumour cell line panel, 48 h
# 786-0 renal = tested on: 786-0 renal
# HL-60(TB) leukemia = tested on: HL-60(TB) leukemia
# MCF7 breast = tested on: MCF7 breast
# MDA-MB-435 = tested on: MDA-MB-435
# NCI/ADR-RES ovarian = tested on: NCI/ADR-RES ovarian
# PC-3 prostate = tested on: PC-3 prostate
# RPMI-8226 leukemia = tested on: RPMI-8226 leukemia
# SF-539 CNS = tested on: SF-539 CNS
# SK-MEL-2 melanoma = tested on: SK-MEL-2 melanoma
# SNB-75 CNS = tested on: SNB-75 CNS
Compound,GI50 (786-0 renal),TGI (786-0 renal),GI50 (HL-60(TB) leukemia),TGI (HL-60(TB) leukemia),GI50 (MCF7 breast),TGI (MCF7 breast),GI50 (MDA-MB-435),TGI (MDA-MB-435),GI50 (NCI/ADR-RES ovarian),TGI (NCI/ADR-RES ovarian),GI50 (PC-3 prostate),TGI (PC-3 prostate),GI50 (RPMI-8226 leukemia),TGI (RPMI-8226 leukemia),GI50 (SF-539 CNS),TGI (SF-539 CNS),GI50 (SK-MEL-2 melanoma),TGI (SK-MEL-2 melanoma),GI50 (SNB-75 CNS),TGI (SNB-75 CNS)
Cc1nn(-c2ccccc2)c(C)c1/C=N/N1CCN(Cc2ccccc2)CC1,22.9 µM,97.4 µM,28.7 µM,63 µM,31 µM,> 100 µM,> 100 µM,> 100 µM,50.3 µM,> 100 µM,25.2 µM,96.5 µM,19.9 µM,48.9 µM,76.4 µM,> 100 µM,60.7 µM,> 100 µM,99 µM,> 100 µM
Cc1cccc2c1NC(=O)C2(c1ccc(O)cc1)c1ccc(O)cc1,17.9 µM,40.1 µM,7.64 µM,39.6 µM,0.0219 µM,> 59.6 µM,15.4 µM,34.9 µM,0.133 µM,> 100 µM,0.0497 µM,> 62 µM,17.9 µM,64 µM,17.7 µM,45.8 µM,15.7 µM,37.8 µM,0.0601 µM,37.5 µM
COC(=O)c1cc(NC(=O)CN(CCN(CC(=O)O)CC(=O)Nc2ccc(O)c(C(=O)OC)c2)CC(=O)O)ccc1O,35.2 µM,> 100 µM,42.2 µM,> 100 µM,33.5 µM,> 100 µM,> 100 µM,> 100 µM,> 100 µM,> 100 µM,96.2 µM,> 100 µM,> 100 µM,> 100 µM,29.4 µM,> 100 µM,> 100 µM,> 100 µM,55.3 µM,> 100 µM
Cc1csc(-c2ccc3c(c2)COC3(CCCN(C)C)c2ccc(F)cc2)c1 (centres undefined),1.8 µM,3.39 µM,1.97 µM,4.27 µM,1.7 µM,3.38 µM,1.69 µM,3.08 µM,1.81 µM,3.44 µM,1.81 µM,3.45 µM,2.2 µM,4.76 µM,1.8 µM,3.22 µM,1.96 µM,3.95 µM,1.2 µM,2.61 µM
COc1cccc2cc(-c3nc(C4CCC(C(=O)O)CC4)n4ncnc(N)c34)[nH]c12 (centres undefined),0.344 µM and 0.488 µM,6.57 µM and 5.44 µM,3.13 µM and > 3.55 µM,25.7 µM and > 10 µM,0.155 µM and 0.22 µM,> 35.7 µM,0.288 µM and 0.531 µM,3.08 µM and 6.84 µM,0.406 µM and 0.804 µM,10.3 µM and > 10 µM,0.129 µM and 0.342 µM,2.03 µM and 4.42 µM,0.185 µM and 0.303 µM,3.02 µM and > 5.2 µM,0.309 µM and 0.516 µM,2.71 µM and 4.09 µM,0.108 µM and 0.347 µM,0.633 µM and 2.23 µM,0.0952 µM and 0.152 µM,1.03 µM and 1.3 µM
CN1CCN(CCCN2c3ccccc3Sc3ccc(C(F)(F)F)cc32)CC1,1.78 µM,3.33 µM and 16.1 µM and 21.6 µM,2.78 µM,4.92 µM and 17.7 µM and 22.7 µM,1.77 µM,3.29 µM and 18.7 µM,1.69 µM,3.29 µM and 9.49 µM and 11.4 µM,1.91 µM,4.61 µM and 25 µM and 25.5 µM,2.31 µM,8.42 µM and 16.8 µM and 17.5 µM,2.21 µM and 2.06 µM and 6.37 µM,5.09 µM and 22.1 µM,1.94 µM,4.12 µM and 18.6 µM and 20.1 µM,2.34 µM,4.26 µM and 15.4 µM and 15.6 µM,6.4 µM,22.7 µM and 16.8 µM and 20.8 µM
C=C(CN(C)C)C(=O)c1ccc(OC)cc1,–,5.78 µM,–,0.631 µM,–,21.4 µM,–,26.4 µM,–,34.2 µM,–,28.5 µM,–,9.19 µM,–,9.56 µM,–,13.2 µM,–,39.9 µM
Nc1ncnc2c1c(C(=O)NO)cn2C1OC(CO)C(O)C1O (centres undefined),0.63 µM,14.2 µM,0.158 µM,0.457 µM,0.213 µM,1.69 µM,0.363 µM,1.9 µM,0.137 µM,–,0.286 µM,> 41.9 µM,0.282 µM,–,0.551 µM,3.01 µM,0.333 µM,1.92 µM,0.509 µM,8.04 µM
C(=C\c1nc2ccccc2s1)/c1ccc(N2CCOCC2)s1,33.7 µM,> 100 µM,> 100 µM,> 100 µM,75 µM,> 100 µM,> 100 µM,> 100 µM,37.1 µM,> 100 µM,33.7 µM,> 100 µM,25.6 µM,> 100 µM,53.1 µM,> 100 µM,63.8 µM,> 100 µM,31.6 µM,> 100 µM
CC(=O)Nc1ccc(S(=O)(=O)c2ccc(NC(C)=O)cc2)cc1,> 100 µM,> 100 µM,> 100 µM,> 100 µM,> 100 µM,> 100 µM,> 100 µM,> 100 µM,> 100 µM,> 100 µM,> 100 µM,> 100 µM,> 100 µM,> 100 µM,–,–,> 100 µM,> 100 µM,–,–
O=C(O)CP(=O)(c1ccccc1)c1ccccc1.O=C(O)CP(=O)(c1ccccc1)c1ccccc1.[Cd],19.3 µM,60 µM,15.9 µM,60.7 µM,27.2 µM,> 100 µM,4.26 µM,22.4 µM,21.9 µM,52.2 µM,18 µM,35.1 µM,0.277 µM,0.991 µM,11.4 µM,26.2 µM,19.6 µM,75.3 µM,16 µM,32.4 µM
O=c1cc(-c2ccccc2)nc2cc(-c3ccco3)[nH]n12,31 µM,> 100 µM,11.1 µM,> 100 µM,0.554 µM,> 100 µM,1.97 µM,5.67 µM,11.4 µM,50.9 µM,15 µM,> 100 µM,13.7 µM,89.9 µM,13.3 µM,78.9 µM,6.53 µM,54.2 µM,12.5 µM,> 100 µM
O=C1C(Cl)=C(Nc2ccccn2)C(=O)c2ccccc21,13.1 µM,26.3 µM,2.52 µM,5.83 µM,1.96 µM,4.12 µM,2.02 µM,3.96 µM,3.23 µM,17.2 µM,2.27 µM,8.35 µM,2.15 µM,7.03 µM,2.07 µM,4.75 µM,3.05 µM,6.66 µM,2 µM,4.49 µM
